Drawing on ChEMBL document CHEMBL5120923, “Tamarixetin Attenuated the Virulence of Staphylococcus aureus by Directly Targeting Caseinolytic Protease P” (J Nat Prod, 2022), this text covers inhibition for 1 compound.

The subject of assay [1] is Staphylococcus aureus. The assay can be described thus: Inhibition of Hla protein expression in methicillin-resistant Staphylococcus aureus USA300 at 4 to 64 ug/ml incubated for overnight by western blot analysis. It counts as functional. The note with it: dose 4-64 µg/ml, DDE = dose-dependent effect. Background: A western blot detects proteins with antibodies after separation by electrophoresis.

Assay [2] concerns Staphylococcus aureus. As to the kind of experiment: Inhibition of Hla protein expression in methicillin-resistant Staphylococcus aureus Newman at 4 to 64 ug/ml incubated for overnight by western blot analysis. In kind it is functional. The note with it: dose 4-64 µg/ml, DDE = dose-dependent effect.

Take `COc1ccc(-c2oc3cc(O)cc(O)c3c(=O)c2O)cc1O` [TAMARIXETIN]: the inhibition result in the assay with Staphylococcus aureus [1] and with Staphylococcus aureus [2] was “Dde” each time.
